Measured values published in ChEMBL document CHEMBL1201862, “PubChem BioAssay data set” (2004).
Calls of active or inactive are those of the source.

Assays:
Streptococcus = test: GAS UMAA2166 growth inhibition – luminescence, BacTiterGlo, counter-screen for streptokinase expression inhibitor project, dose response (AID 1915); type: functional, organism-based;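 further: potency for reduction of bacterial viability or growth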
Streptokinase A = biological target: T1, Streptokinase A (Streptococcus pyogenes serotype M1, UniProt P10520); test: viability-normalized secreted streptokinase activity reduction – plasminogen activation absorbance, OD405, dose response (AID 1914); type: functional, Streptococcus pyogenes M1 GAS;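 further: secreted streptokinase activity via plasminogen activation per viability signal from cell pellet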
T1 sequence (P10520 whole entry): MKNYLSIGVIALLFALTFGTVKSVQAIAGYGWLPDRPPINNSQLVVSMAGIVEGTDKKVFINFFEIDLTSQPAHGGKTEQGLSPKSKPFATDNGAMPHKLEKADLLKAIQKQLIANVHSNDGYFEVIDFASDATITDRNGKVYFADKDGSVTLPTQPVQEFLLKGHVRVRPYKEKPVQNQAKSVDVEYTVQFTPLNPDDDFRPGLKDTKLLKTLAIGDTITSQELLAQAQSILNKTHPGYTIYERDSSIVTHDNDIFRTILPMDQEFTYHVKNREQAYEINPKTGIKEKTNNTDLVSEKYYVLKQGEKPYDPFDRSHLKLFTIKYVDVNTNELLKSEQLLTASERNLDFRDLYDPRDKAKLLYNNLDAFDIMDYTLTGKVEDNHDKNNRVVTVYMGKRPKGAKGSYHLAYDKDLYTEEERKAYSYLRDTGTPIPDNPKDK

[1] = system: Streptococcus sp. 'group A'; test: Streptococcus pyogenes SK(-)GAS viability under kanamycin – luminescence, BacTiterGlo, confirmation, counter-screen for streptokinase expression inhibitor project, dose response (AID 1900); type: functional, organism-based
Cytochrome P450 2C19 = Cytochrome P450 2C19 (Homo sapiens, UniProt P33261); test: Cytochrome panel assay with activity outcomes. Panel member name: p450-cyp2c19 Compounds with AC50 equal or less than 10 uM are considered active; type: functional; conditions: read-out: AC50
Cytochrome P450 1A2 = biological target: T2, Cytochrome P450 1A2 (Homo sapiens, UniProt P05177);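 further: PubChem cytochrome P450 panel assay, CYP1A2 panel member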
T2 sequence (P05177 whole entry): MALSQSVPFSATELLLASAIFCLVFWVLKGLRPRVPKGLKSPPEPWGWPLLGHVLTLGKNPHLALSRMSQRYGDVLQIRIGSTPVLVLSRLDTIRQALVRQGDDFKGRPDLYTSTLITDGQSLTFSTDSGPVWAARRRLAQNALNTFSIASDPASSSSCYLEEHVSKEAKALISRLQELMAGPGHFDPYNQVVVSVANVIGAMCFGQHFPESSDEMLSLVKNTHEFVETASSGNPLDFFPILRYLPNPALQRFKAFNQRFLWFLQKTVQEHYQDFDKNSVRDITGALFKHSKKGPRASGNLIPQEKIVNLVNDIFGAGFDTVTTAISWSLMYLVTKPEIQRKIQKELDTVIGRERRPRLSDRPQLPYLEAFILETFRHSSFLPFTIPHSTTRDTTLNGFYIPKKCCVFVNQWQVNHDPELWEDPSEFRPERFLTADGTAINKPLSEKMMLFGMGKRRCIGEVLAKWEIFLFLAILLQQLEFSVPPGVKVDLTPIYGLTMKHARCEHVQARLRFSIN

[2] = NIH3T3 cell viability loss – ATP luminescence, mouse fibroblasts, counter-screen, dose response (AID 2010); type: functional, cell-based;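 further: cells exposed to compound for about 90 hours before reading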
[3] = Trypanosoma cruzi growth suppression in host cells – NIH3T3 host cells, beta-gal luminescence, confirmation (AID 2044); type: functional, cell-based;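 further: intracellular parasites grown in NIH/3T3 mouse fibroblasts as host cells; luminescent beta-galactosidase reporter signal from transgenic T. cruzi replicating inside host cells; inhibitors lower the luminescence signal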
[4] = biological target: T3, Corticotropin-releasing factor receptor 2/Corticotropin-releasing factor-binding protein (Homo sapiens, UniProt P24387+Q13324); test: activators of CRF receptor 2 with binding protein – uHTS hits, confirmation (AID 602473); type: functional; conditions: read-out: EC50_Mean
T3 sequence (Q13324 whole entry): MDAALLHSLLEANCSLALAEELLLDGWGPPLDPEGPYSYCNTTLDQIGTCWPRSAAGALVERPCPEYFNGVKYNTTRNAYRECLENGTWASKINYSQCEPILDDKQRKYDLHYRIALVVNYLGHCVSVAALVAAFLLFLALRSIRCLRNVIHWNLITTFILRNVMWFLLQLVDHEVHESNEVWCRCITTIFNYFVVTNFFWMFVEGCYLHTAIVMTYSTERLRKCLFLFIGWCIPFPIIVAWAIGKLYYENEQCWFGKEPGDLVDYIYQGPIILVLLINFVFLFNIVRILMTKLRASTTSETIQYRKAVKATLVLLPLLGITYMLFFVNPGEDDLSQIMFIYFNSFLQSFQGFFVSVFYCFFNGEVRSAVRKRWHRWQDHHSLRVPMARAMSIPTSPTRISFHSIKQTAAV
T3 sequence (P24387 whole entry): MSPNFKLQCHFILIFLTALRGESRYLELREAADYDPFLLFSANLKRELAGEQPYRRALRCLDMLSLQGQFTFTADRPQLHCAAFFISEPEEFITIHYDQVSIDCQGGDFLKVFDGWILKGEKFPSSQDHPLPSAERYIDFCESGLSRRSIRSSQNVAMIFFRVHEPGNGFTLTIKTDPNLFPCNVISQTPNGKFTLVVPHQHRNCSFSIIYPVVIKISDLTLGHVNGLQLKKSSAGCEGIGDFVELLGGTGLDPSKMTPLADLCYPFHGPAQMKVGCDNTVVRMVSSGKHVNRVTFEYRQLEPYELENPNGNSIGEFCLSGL

H4 = test: Luminescence Cell-Based Dose Response HTS to Identify Activators of 5'UTR Stem-Loop Driven Prion Protein mRNA Translation in H4 Neuroglioblastoma Cells. [Related pubchem assays: 1829 (Project Summary), 1814 (Primary HTS)]; type: functional; conditions: Homo sapiens
[5] = Luminescence Cell-Based Dose Response HTS to Identify Activators of Luciferase Translation or Activity in H4 […] Cells. [Related pubchem assays: 1829 (Project Summary), 1814 (Primary HTS)]; type: functional
Cytochrome P450 3A4 = Cytochrome P450 3A4 (Homo sapiens, UniProt P08684);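 further: CYP3A4 tested as one member of a cytochrome P450 panel screen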
Cytochrome P450 2C9 = Cytochrome P450 2C9 (Homo sapiens, UniProt P11712)
Cytochrome P450 2C9, sequence (P11712 whole entry): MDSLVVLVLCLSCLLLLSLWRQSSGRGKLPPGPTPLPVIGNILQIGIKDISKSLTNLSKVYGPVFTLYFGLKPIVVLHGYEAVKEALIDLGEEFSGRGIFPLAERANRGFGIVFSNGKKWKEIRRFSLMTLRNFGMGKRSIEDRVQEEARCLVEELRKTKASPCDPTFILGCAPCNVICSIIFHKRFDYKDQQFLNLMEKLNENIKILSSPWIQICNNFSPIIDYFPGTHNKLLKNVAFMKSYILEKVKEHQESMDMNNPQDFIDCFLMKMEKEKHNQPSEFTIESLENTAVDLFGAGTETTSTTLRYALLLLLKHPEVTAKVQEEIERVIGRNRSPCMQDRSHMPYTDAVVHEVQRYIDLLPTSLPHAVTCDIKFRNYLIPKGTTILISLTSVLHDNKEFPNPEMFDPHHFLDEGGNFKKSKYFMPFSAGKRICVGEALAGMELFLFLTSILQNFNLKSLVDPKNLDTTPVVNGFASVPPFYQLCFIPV

Cytochrome P450 2C19, sequence (P33261 whole entry): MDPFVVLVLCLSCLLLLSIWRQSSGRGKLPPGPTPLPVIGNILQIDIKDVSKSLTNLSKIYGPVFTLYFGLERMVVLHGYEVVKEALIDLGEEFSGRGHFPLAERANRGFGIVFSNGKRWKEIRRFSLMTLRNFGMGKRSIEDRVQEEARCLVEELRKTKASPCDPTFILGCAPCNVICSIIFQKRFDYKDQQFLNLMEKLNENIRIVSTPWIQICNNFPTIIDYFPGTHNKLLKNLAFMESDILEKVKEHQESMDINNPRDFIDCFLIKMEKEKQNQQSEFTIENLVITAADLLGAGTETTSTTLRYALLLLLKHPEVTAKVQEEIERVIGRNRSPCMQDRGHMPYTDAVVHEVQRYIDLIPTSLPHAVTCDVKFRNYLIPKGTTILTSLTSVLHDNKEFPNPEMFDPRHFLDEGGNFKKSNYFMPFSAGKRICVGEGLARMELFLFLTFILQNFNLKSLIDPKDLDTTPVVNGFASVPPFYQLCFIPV
Cytochrome P450 3A4, sequence (P08684 whole entry): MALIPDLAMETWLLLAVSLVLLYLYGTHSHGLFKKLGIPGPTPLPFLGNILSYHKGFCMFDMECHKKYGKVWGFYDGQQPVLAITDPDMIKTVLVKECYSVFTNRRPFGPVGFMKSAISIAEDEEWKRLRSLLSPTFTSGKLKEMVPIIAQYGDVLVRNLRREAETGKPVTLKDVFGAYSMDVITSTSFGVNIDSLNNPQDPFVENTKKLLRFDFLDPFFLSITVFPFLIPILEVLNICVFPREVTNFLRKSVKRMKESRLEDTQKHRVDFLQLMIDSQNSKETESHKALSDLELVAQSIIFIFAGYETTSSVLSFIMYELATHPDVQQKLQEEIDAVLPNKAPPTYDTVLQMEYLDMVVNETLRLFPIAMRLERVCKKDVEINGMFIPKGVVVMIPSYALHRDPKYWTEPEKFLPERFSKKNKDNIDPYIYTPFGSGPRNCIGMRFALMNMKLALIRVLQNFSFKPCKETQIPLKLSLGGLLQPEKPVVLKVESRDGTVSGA

CCCn1c(=O)c(C(=O)Nc2ncccc2C)c(O)c2ccccc21
EC50 (Streptococcus): 16.8 µM (active)
EC50 (Streptokinase A): > 150 µM (not active)
EC50 [1]: 9.49 µM (active)

O=C(CC(=O)NN=C1CCCC1)NCCc1ccccc1
AC50 (Cytochrome P450 2C19): 25.1 µM (inconclusive)

CCC(=O)Nc1nnc(C(C)(C)C)s1
AC50 (Cytochrome P450 1A2): 17.8 µM (inconclusive)

COc1ccc(C(=O)Nc2sc(C)c(-c3ccccc3)c2C#N)cc1OC
EC50 (Streptococcus): 45.5 µM (active)
EC50 (Streptokinase A): > 150 µM (not active)
EC50 [1]: 9.09 µM (active)

O=[N+]([O-])c1ccc(S(=O)(=O)NCC(c2cccnc2)N2CCc3ccccc32)cc1 (stereo unspecified)
EC50 [2]: > 60 µM (not active)
EC50 [3]: 622 nM (active)

CC(Oc1ccc(Cl)cc1Cl)C(=O)Nc1ccc(S(=O)(=O)Nc2cnc3ccccc3n2)cc1 (stereo unspecified)
EC50 (Streptococcus): 7.38 µM (active)
EC50 (Streptokinase A): 3.69 µM (active)
EC50 [1]: 2.45 µM (active)

CCN1CC(CN(C)Cc2nc(-c3ccc(C(F)(F)F)cc3)oc2C)CC1=O (stereo unspecified)
EC50 [2]: 32.6 µM (active)
EC50 [3]: 288 nM (active)

COc1ccc(CCNC(=O)c2nnn(CC(=O)Nc3ccccc3C)c2N)cc1OC
AC50 (Cytochrome P450 2C19): 17.8 µM (inconclusive)

O=C(COC(=O)c1ccccc1)Nc1ccccc1Sc1ccccc1
EC50 (Streptococcus): > 150 µM (not active)
EC50 (Streptokinase A): 28.8 µM (active)
EC50 [1]: > 150 µM (not active)

O=C(Cn1cnc2cc([N+](=O)[O-])ccc2c1=O)Nc1ccc(Br)cc1
EC50 [2]: > 30 µM (not active)
EC50 [3]: 850 nM (active)

COc1ccccc1CNC(=O)c1ccc(-c2ccccc2Cl)o1
EC50 (Streptococcus): 17.5 µM (active)
EC50 (Streptokinase A): > 150 µM (not active)
EC50 [1]: 15.3 µM (active)

COc1cc(/C=C2\CCC(C)C3=C(c4cc(OC)c(OC)c(OC)c4)C(C#N)=C(N)OC32)cc(OC)c1OC (stereo unspecified)
EC50 [4]: > 53 µM (inactive)

O=C(Oc1ccc(S(=O)(=O)F)cc1F)c1ccccc1Cl
AC50 (Cytochrome P450 1A2): 5.01 µM (inconclusive)

[O-]c1c[n+](CC[n+]2cc([O-])on2)no1
AC50 (Cytochrome P450 1A2): 2.51 µM (inconclusive)

Cc1cc2c(cc1C)-c1c(ss/c1=N\c1ccc(S(N)(=O)=O)cc1)C(C)(C)N2
EC50 (Streptococcus): > 150 µM (not active)
EC50 (Streptokinase A): 26.1 µM (active)
EC50 [1]: 4.16 µM (active)

C=C(C)CSc1nncn1/N=C/c1ccc(OC)cc1
EC50 (H4): 11.9 µM (active)
EC50 [5]: > 120 µM (not active)

Oc1nc2cc(Cl)ccc2c(O)c1-c1ccc(Oc2ccccc2)cc1
AC50 (Cytochrome P450 3A4): 10 µM (inconclusive)
AC50 (Cytochrome P450 1A2): 10 µM (inconclusive)

O=C(Cn1c(-c2ccccc2)c[n+]2ccsc12)c1ccccc1
EC50 [2]: > 30 µM (not active)
EC50 [3]: 2290 nM (active)

O=C(/C=C/c1ccccc1)NNC(=O)c1cccnc1
AC50 (Cytochrome P450 2C9): 7.08 µM (inconclusive)
AC50 (Cytochrome P450 2C19): 31.6 µM (inconclusive)

C/C(Cn1cnc([N+](=O)[O-])n1)=N\NC(=O)c1ccc(O)cc1O
EC50 [2]: > 60 µM (not active)
EC50 [3]: 1520 nM (active)

COC(=O)C1=C(C)NC(C)=C(C(=O)OC(C)C)[C@H]1c1cccc2nonc12 [(S)-ISRADIPINE]
AC50 (Cytochrome P450 1A2): 12.6 µM (inconclusive)
